The results in this text go back to US20260265409A1, “ANTIBODY FUSION PROTEIN TARGETING FAP AND TGFbeta, AND USE THEREOF” (NANJING LEADS BIOLABS CO., LTD., priority 2022, published 2026).

Experiment [1] has as its target T1, human FAP protein expressed on 293T cells (Homo sapiens, UniProt Q12884).
T1 construct: expressed in transfected cells; host or cells: 293T cells, PIRES-puro3 vector, puromycin selection
T1 sequence (Q12884 1-760): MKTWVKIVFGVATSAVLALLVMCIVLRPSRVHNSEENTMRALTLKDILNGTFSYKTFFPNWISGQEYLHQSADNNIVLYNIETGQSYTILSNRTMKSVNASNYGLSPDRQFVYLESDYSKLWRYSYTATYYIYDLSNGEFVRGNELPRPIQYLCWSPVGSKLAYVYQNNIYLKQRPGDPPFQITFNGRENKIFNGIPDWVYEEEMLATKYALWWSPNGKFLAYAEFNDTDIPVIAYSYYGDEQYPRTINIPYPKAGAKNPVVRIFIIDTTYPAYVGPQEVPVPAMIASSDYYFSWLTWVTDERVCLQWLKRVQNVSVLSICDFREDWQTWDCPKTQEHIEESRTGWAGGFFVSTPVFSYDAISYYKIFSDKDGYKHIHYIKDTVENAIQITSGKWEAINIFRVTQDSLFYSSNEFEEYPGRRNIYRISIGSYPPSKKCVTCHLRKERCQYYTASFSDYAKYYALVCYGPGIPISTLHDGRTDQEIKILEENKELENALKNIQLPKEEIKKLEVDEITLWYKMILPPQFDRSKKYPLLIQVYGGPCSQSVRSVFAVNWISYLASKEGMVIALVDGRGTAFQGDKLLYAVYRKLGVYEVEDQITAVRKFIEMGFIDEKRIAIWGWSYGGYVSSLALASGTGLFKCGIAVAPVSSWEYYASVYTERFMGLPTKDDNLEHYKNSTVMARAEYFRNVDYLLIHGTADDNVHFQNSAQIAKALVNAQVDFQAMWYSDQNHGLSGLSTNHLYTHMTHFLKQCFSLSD
The experiment in a line: Cell binding assay by flow cytometry, 293T-human FAP cells. As for the experimental part:
Whether the humanized antibody of the present disclosure can bind to human FAP protein stably expressed on the surface of 293T cells was determined by a cell binding assay. Firstly, the sequences encoding human FAP protein (NM_004460.2, SEQ ID NO: 31) and cynomolgus FAP (XM_005573320.2, SEQ ID NO: 32) were cloned into expression vector PIRES-puro3 (Clontech, Cat #631619) […]. The vectors were used to transfect 293T cells. […]
The human FAP antibodies (huF19-LG and sibrotuzumab) were 4-fold serially diluted from a starting concentration of 200 nM to a total of 8 concentrations and added to the cells for co-incubation at 4° C. for 30 min. […] The cells were washed twice with PBS and then resuspended, and finally, fluorescence signals were detected using the […] (BD Bioscience) flow cytometer.
Whether the mutant antibody in the present disclosure can bind to human or cynomolgus FAP protein stably expressed on the surface of 293T cells was determined by a cell binding assay. […] The cells were washed twice with PBS and then resuspended, and finally, fluorescence signals were detected using the […] (BD Bioscience) flow cytometer. […]

The subject of experiment [2] is renal interstitium fibrosis model induced by left ureter ligation. Description: UUO renal interstitium fibrosis model in mice. The class given is in vivo, C57BL/6J mice. The note with it: 20 mg/kg and 3 mg/kg intraperitoneal every other day, day 10; FIG. 9, FIG. 10. As for the experimental part:
In this animal pharmacodynamic study, a renal interstitium fibrosis model was induced by left ureter ligation in mice supplied by KCl BioTech. The efficacy of the surrogate antibody fusion protein 28H1-Trap on renal fibrosis was evaluated in this model. C57BL/6J mice (Shanghai Jihui Laboratory Animal Care Co., Ltd.) aged 8-9 weeks were randomized by weight. On the day of modeling (day 0), the mice in groups 2-4 were anesthetized with isoflurane. The abdominal cavity was opened along the ventral midline, and the left ureter of the animal was ligated. The abdomen was closed and the skin was sutured. The treatment was given intraperitoneally on the day of modeling. The animals in group 1 were anesthetized with isoflurane. The abdominal cavity was opened along the ventral midline and closed immediately, and the skin was sutured. In the next 10 days, the treatments were given intraperitoneally once every other day, and the body weight was measured once every two days. The specific treatments and dosages are shown in the following table: The animals were given an I.P. injection of the test substance on days 0, 2, 4, 6, and 8, and the animals were given the analgesic meloxicam subcutaneously on days 1-3. The body weight was recorded daily. The kidney on the UUO side were scored for fibrosis by Masson staining. […] The degree of fibrosis of the kidney was evaluated (see FIG. 10).

The subject of experiment [3] is bilateral idiopathic pulmonary fibrosis model. The experiment in a line: Bleomycin-induced idiopathic pulmonary fibrosis (IPF) model in mice. The class given is in vivo, C57BL/6 mice. The protocol: In this animal pharmacodynamic study, a bilateral idiopathic pulmonary fibrosis model was induced using bleomycin instillation into the trachea of mice supplied by KCl BioTech. The efficacy of the surrogate antibody fusion protein 28H1-Trap on pulmonary fibrosis was evaluated in this model. C57BL/6 mice (Cavens Biogle (Suzhou) Co., Ltd.) aged 8-9 weeks were treated from the day of modeling and the induced pulmonary fibrosis model was established by tracheal instillation of bleomycin after the treatment. In the next three weeks, intraperitoneal doses were given twice weekly, and the body weight was measured once every two days. The specific treatments and dosages are shown in the following table: Mice were euthanized at the end of study. At the end of study, both lungs were collected from 15 surviving animals in each group (6 in the normal group) and fixed by formalin perfusion. Histological sections were made, stained with Masson, imaged (FIGS. 7A-H), and graded by pulmonary fibrosis scores. Pathological staining results are shown in FIG. 7, where black arrows indicate intact alveolar structures and the dark interstitial parts indicate collagen accumulation.

On to “28H1-Trap: pharmacodynamic surrogate fusion protein: anti-FAP antibody 28H1 (WO2012020006) fused to TGFβR2 extracellular domain; heavy chain SEQ ID NO: 29, light chain SEQ ID NO: 28”, for which, in experiment [1], the “binding to human FAP protein expressed on engineered 293T cells (FACS)” value is given as “confirmed to bind to human FAP at cellular level”. Also, the “kidney fibrosis score by Masson staining” value in experiment [2] was “significant dose-dependent ameliorative effect on the fibrosis in the renal cortex of the kidney”. In experiment [3] (20 mg/kg and 3 mg/kg vs modeling group, FIG. 8B), the “pulmonary fibrosis grading (Ashcroft scoring)” value is reported as “reduced the pulmonary fibrotic lesions in a dose-dependent manner”. Besides, the “grade of pulmonary fibrotic lesions (Masson staining, pathological sections)” value in experiment [3] (20 mg/kg intraperitoneal twice weekly, 21 days, vs modeling group, FIG. 7) was “could reduce the grade of pulmonary fibrotic lesions”. Moreover, the “pulmonary fibrosis staining scoring” value in experiment [3] (high dose (20 mg/kg) vs modeling group, FIG. 8A) is “can reduce fibrotic lesions in the lungs at a high dose”.
